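Compound exposure: 48 hours, 5 concentrations, 96-well plates. At the GI50, growth is halved.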 The source made the active and inactive calls. No stated cut-off is given here; in the data, active = GI50 up to about 1.1 µM and inactive = higher.

Assay in all cases: growth of human tumour cells (NCI), 48 h
Assay [1] relates to UO-31.
For assay [2], the system named is SNB-19.
The test system of assay [3] is K562.
In assay [4] the test system is NCI/ADR-RES.
The subject of assay [5] is HCC 2998.
Assay [6] concerns MDA-MB-435.
In assay [7] the test system is CCRF-CEM.
Assay [8] deals with OVCAR-5.
Assay [9] has as its system Malme-3M.
The test system of assay [10] is OVCAR-8.
In assay [11] the test system is PC-3.
The subject of assay [12] is NCI-H23.
For assay [13], the system named is HCT-15.
For assay [14], the system named is UACC-62.
The subject of assay [15] is HCT-116.
Assay [16] has as its system BT-549.
In assay [17] the test system is U-251.
The subject of assay [18] is COLO 205.
Assay [19] concerns HOP-62.
Assay [20] has as its system T47D.

In the case of `Cc1c(N/C=C(\C#N)C(=O)c2ccc(Cl)cc2)c(=O)n(-c2ccccc2)n1C`, the GI50 in [1] was 64.9 µM (inactive); in assay [2] it was > 100 µM (inactive); in assay [3] it was 97.9 µM (inactive); in [4], 43.9 µM (inactive); in assay [5] it was > 100 µM (inactive); in assay [6] it was 34.9 µM (inactive). Moreover, the GI50 in [7] is 38.9 µM (inactive); in assay [8], > 100 µM (inactive); in [9], > 100 µM (inactive); in assay [10], 91.8 µM (inactive); in assay [11], > 100 µM (inactive); in assay [12] it was > 100 µM (inactive). In addition, the GI50 is over 100 µM in assay [13]; 59.3 µM (inactive) in [14]; 80.7 µM (inactive) in [15]; 46.6 µM (inactive) in assay [16]; > 100 µM (inactive) in [17]; > 100 µM (inactive) in assay [18].

For the molecule `COCCOC(=O)NCn1cc(-c2ccccc2)nn1`, the GI50 in [2], in [3], in [4], in assay [5], in assay [6] and in assay [7] was > 100 µM (inactive) throughout. Moreover, the GI50 was > 100 µM (inactive) in assay [8]; > 100 µM (inactive) in assay [9]; > 100 µM (inactive) in assay [10]; > 100 µM (inactive) in assay [11]; > 100 µM (inactive) in [12]; over 100 µM in assay [13]. The GI50 in [15], in [16], in assay [19], in [17] and in assay [18] was > 100 µM (inactive) throughout.

For the molecule `C#CCCOC1(OC)N=NC(C)(C)O1` (stereo not given), the GI50 in assay [1], in assay [2], in assay [3], in assay [4], in assay [20] and in assay [5] was > 100 µM (inactive) throughout. For the same molecule, the GI50 in assay [6], in assay [7], in assay [8], in assay [9], in [10] and in [11] was > 100 µM (inactive) in each case. For the same molecule, the GI50 is > 100 µM (inactive) in assay [12]; over 100 µM in assay [13]; > 100 µM (inactive) in assay [14]; > 100 µM (inactive) in assay [15]; > 100 µM (inactive) in [19]; > 100 µM (inactive) in assay [17]. For the same molecule, the GI50 in assay [18] is > 100 µM (inactive).

In the case of `NC(=O)NC(=O)c1cccc(C(=O)NC(N)=O)n1`, the GI50 in [1], in assay [2], in assay [3], in assay [4], in [20] and in assay [5] was > 100 µM (inactive) in each case. Further, the GI50 in [6], in assay [7], in [8], in [9], in [10] and in assay [11] was > 100 µM (inactive) in each case. In addition, the GI50 is > 100 µM (inactive) in assay [12]; over 100 µM in assay [13]; > 100 µM (inactive) in [14]; > 100 µM (inactive) in [15]; > 100 µM (inactive) in assay [19]; > 100 µM (inactive) in assay [17]. The GI50 in assay [18] is > 10 µM (inactive).

As to `CN(C)C(=O)N1N[C@H](c2ccccc2)[C@@H]1c1ccccc1`, the GI50 in [1], in [2], in [3], in [4], in assay [20] and in assay [5] was > 100 µM (inactive) each time. Also, the GI50 is > 100 µM (inactive) in assay [6]; > 100 µM (inactive) in assay [7]; > 100 µM (inactive) in assay [9]; > 100 µM (inactive) in assay [10]; 48 µM (inactive) in assay [11]; > 100 µM (inactive) in [12]. For the same molecule, the GI50 in [13] was over 100 µM; in assay [14], > 100 µM (inactive); in [15] it was > 100 µM (inactive); in [19], > 100 µM (inactive); in assay [17], > 100 µM (inactive); in assay [18], > 100 µM (inactive).

For the molecule `CN(c1ccccc1Cl)S(=O)(=O)c1ccccc1`, the GI50 is 52.4 µM (inactive) in [1]; > 100 µM (inactive) in assay [2]; 51.8 µM (inactive) in [3]; > 100 µM (inactive) in assay [4]; 76.6 µM (inactive) in [6]; > 100 µM (inactive) in assay [7]. In addition, the GI50 in [8] was > 100 µM (inactive); in assay [9] it was > 100 µM (inactive); in [10] it was > 100 µM (inactive); in [11], 44.3 µM (inactive); in assay [12], 54.5 µM (inactive); in assay [13], over 100 µM. The GI50 in [14] was > 100 µM (inactive); in assay [15], 82.4 µM (inactive); in [16] it was 56.2 µM (inactive); in assay [19] it was > 100 µM (inactive); in assay [17], > 100 µM (inactive); in assay [18], > 100 µM (inactive).

`O=C(O)CSCC(=O)O`: the GI50 in [1], in assay [2], in [3], in assay [4], in [6] and in [7] was > 100 µM (inactive) each time. Further, the GI50 is > 100 µM (inactive) in [8]; > 100 µM (inactive) in assay [9]; > 100 µM (inactive) in assay [10]; > 100 µM (inactive) in assay [11]; > 100 µM (inactive) in assay [12]; over 100 µM in assay [13]. For the same molecule, the GI50 in assay [14], in assay [15], in assay [16], in [19] and in assay [17] was > 100 µM (inactive) each time.

For `O=C1c2ccccc2C2(c3ccc(Cl)cc3)N[C@@H]3CCCC[C@@H]3N12` (stereo not given in full), the GI50 in assay [1], in assay [2], in [3], in assay [20], in assay [5] and in assay [6] was > 100 µM (inactive) throughout. Further, the GI50 in [7] was > 100 µM (inactive); in assay [8], > 100 µM (inactive); in assay [10] it was > 100 µM (inactive); in [11], > 100 µM (inactive); in [12] it was > 100 µM (inactive); in [13] it was over 100 µM. For the same molecule, the GI50 in assay [14], in [15], in assay [16], in assay [19], in assay [17] and in assay [18] was > 100 µM (inactive) in each case.

On to `CCOC(=O)C1=C(N2CCCC2)NC(=O)CC1=O`, for which the GI50 was > 100 µM (inactive) in assay [1]; > 100 µM (inactive) in assay [2]; > 100 µM (inactive) in assay [3]; > 100 µM (inactive) in assay [4]; 63 µM (inactive) in [20]; > 100 µM (inactive) in assay [5]. For the same molecule, the GI50 in assay [6], in [7], in assay [8], in [9], in [10] and in [11] was > 100 µM (inactive) throughout. In addition, the GI50 was > 100 µM (inactive) in assay [12]; over 100 µM in assay [13]; > 100 µM (inactive) in [14]; > 100 µM (inactive) in assay [15]; > 100 µM (inactive) in [19]; > 100 µM (inactive) in assay [17]. In addition, the GI50 in assay [18] is > 100 µM (inactive).

For the molecule `COc1ccc(-c2coc3cc(O)ccc3c2=O)cc1` [FORMONONETIN], the GI50 in [1] was 90.6 µM (inactive); in assay [2], > 100 µM (inactive); in assay [3] it was > 100 µM (inactive); in assay [4] it was > 100 µM (inactive); in [20] it was > 100 µM (inactive); in [5], > 100 µM (inactive). Further, the GI50 in assay [6], in [7], in [8], in assay [9], in [10] and in assay [11] was > 100 µM (inactive) each time. For the same molecule, the GI50 was > 100 µM (inactive) in assay [12]; over 100 µM in assay [13]; > 100 µM (inactive) in [14]; > 100 µM (inactive) in assay [15]; > 100 µM (inactive) in assay [19]; > 100 µM (inactive) in assay [17]. Further, the GI50 in [18] is > 100 µM (inactive).

For `CCCCCCN1CCc2c(C)c(C#N)c3nc4ccccc4n3c21`, the GI50 in assay [1] was > 100 µM (inactive); in assay [2], 80.4 µM (inactive); in assay [3] it was > 100 µM (inactive); in assay [4], > 100 µM (inactive); in [5], 49.3 µM (inactive); in [6], 17 µM (inactive). Besides, the GI50 in assay [8] was > 100 µM (inactive); in assay [9] it was 83.2 µM (inactive); in assay [10], 29.2 µM (inactive); in assay [11], 7.82 µM (inactive); in [12], 45 µM (inactive); in assay [13], 27.6 µM. Besides, the GI50 in [14] is 30.1 µM (inactive); in [15], 16.5 µM (inactive); in assay [16], 65.3 µM (inactive); in [19] it was 92.9 µM (inactive); in [17], 12.4 µM (inactive); in assay [18], 29.9 µM (inactive).

For the origin of these results see ChEMBL document CHEMBL1201862, “PubChem BioAssay data set” (2004).
